# Measurements reported in EP0525686A1, “Dimethylacetylacetic acid amides, process for their preparation and pharmaceutical compositions” (LUITPOLD PHARMA GmbH, priority 1991, dated 1993).
# How the values were obtained:
# [1] = tested on: Carrageenin-Lösung erzeugte Ödeme der rechten Hinterpfote; test: Carrageenan-induced paw oedema test for anti-inflammatory activity; type: in vivo, Wistar-Ratten; conditions: 200 mg/kg p.o., 30 min before carrageenan; paw volume 3 h after injection; female Wistar rats, n=10
# Excerpt: Die Prüfung auf antientzündliche Wirkung (C. A. Winter, E. A. Risley, G. W. Nuss; Proc. Soc. Exp. Biol. Med. 111, 544 (1962)) erfolgte durch mit 0.5 %iger wäßriger Carrageenin-Lösung erzeugte Ödeme der rechten Hinterpfote an Gruppen mit je zehn nüchternen, ca. 150 g schweren weiblichen Wistar-Ratten. Dazu wurden mit einem Plethysmometer die Volumina der markierten rechten Hinterpfote unmittelbar vor und drei Stunden nach der Injektion der Carrageenin-Lösung gemessen. Die zu prüfenden Substanzen wurden 30 Minuten vor Erzeugung des Ödems als Gummi arabicum Suspension mittels einer Schlundsonde p.o. verabreicht. Die Kontrollgruppe erhielt reines Leitungswasser. Die Einzeldosis pro Tier lag bei 200 mg/kg Körpergewicht.
# Zur Auswertung wurde die prozentuale Zunahme des Pfotenvolumens für jedes Tier nach folgender Formel berechnet: [formula] dann wurden Mittelwerte und Streuung für alle so berechneten Werte einer Gruppe bestimmt. Der Unterschied zwischen der mit Prüfsubstanz behandelten Versuchs- und der zugehörigen unbehandelten Gruppe wurde nach der Formel [formula] ermittelt. Die statistische Auswertung erfolgte nach den üblichen Verfahren.
# [2] = Acute toxicity (LD50), tolerability; conditions: in vivo; species and route not given
# Experimental: Im Zusammenhang mit der vorliegenden Erfindung wurde überraschend gefunden, daß Substanzen der allgemeinen Formel I wertvolle pharmakologische Eigenschaften aufweisen und insbesondere als antientzündliche Wirkstoffe eingesetzt werden können. Neben der guten Verträglichkeit - die LD50 der Verbindung aus Beispiel 1 liegt beispielsweise bei über 1000 mg/kg - zeichnen sich Verbindungen der allgemeinen Formel I durch nützliche analgetische und antipyretische Eigenschaften aus. Insbesondere eignen sich die erfindungsgemäßen Verbindungen zur Behandlung entzündlicher Erkrankungen bei Mensch und Tier. Die Krankheitsbilder, die mit den erfindungsgemäßen Verbindungen behandelt werden können, umfassen alle entzündlichen Zustände, wie zum Beispiel Entzündungen der Haut wie Radiodermatitis, Psoriasis, Akne, Ekzeme, Entzündungen am Auge wie zum Beispiel Conjunktivitis, Entzündungen im Hals-Nasen-Ohren-Bereichwie zum Beispiel katarralische Infektionen der oberen Luftwege und Sinusitis, entzündliche Erkrankungen des Gefäßsystems wie Thrombophlebitis oder Vaskulitis und Entzündungen des Nervensystems wie zum Beispiel Neuralgien oder Neuritiden. Bevorzugt zu behandelnde entzündliche Erkrankungen sind Entzündungen im Bereich des Bewegungsapparates wie Arthritiden, Arthrose, Tendinitis, Tendopathien, Kontusionen und Distorsionen, Weichteilrheumatismus, Gicht und Lumbalgien. […]
SMILES,% Hemmung [1] [%],LD50 [2] [mg/kg]
"COc1ccccc1NC(=O)CC(=O)C(C)C [Beispiel 1, N-(2-Methoxyphenyl) 4-methylpentan-3-on-säureamid]",52,> 1000
"CC(C)C(=O)CC(=O)Nc1nccs1 [Beispiel 2, N-(2-Thiazolyl)-4-methylpentan-3-on-säureamid]",32,–
"COc1ccc(NC(=O)CC(=O)C(C)C)cc1 [Beispiel 3, N-(4-Methoxyphenyl)-4-methylpentan-3-on-säureamid]",27,–
"COc1ccc(C)cc1NC(=O)CC(=O)C(C)C [Beispiel 4, N-(2-Methoxy-5-methylphenyl)-4-methylpentan-3-on-säureamid]",26,–
